Drawing on publication PMC11279797, “Shifting Mycobacterial Serine Hydrolase Activity Visualized Using Multi-Layer In-Gel Activity Assays” (Molecules, 2024), this text covers KM for one compound.

The test addresses T1, LipN (Mycolicibacterium smegmatis, UniProt I7G6G5).
T1 sequence (I7G6G5 1-378): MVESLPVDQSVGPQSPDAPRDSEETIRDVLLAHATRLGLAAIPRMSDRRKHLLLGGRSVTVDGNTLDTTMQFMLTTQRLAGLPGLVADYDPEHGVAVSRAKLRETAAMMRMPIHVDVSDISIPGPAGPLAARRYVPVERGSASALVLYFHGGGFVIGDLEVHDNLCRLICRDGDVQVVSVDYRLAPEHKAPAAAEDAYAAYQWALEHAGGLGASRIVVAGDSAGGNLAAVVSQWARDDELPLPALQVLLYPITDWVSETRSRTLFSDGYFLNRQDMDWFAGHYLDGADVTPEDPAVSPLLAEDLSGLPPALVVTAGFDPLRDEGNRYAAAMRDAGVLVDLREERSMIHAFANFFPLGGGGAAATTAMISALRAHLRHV
The test can be described thus: fluorogenic ester hydrolysis, initial rates, Michaelis-Menten fit. It counts as biochemical. The following applies: PBS pH 7.4, 0.1 mg/mL acetylated BSA, 25 C.

Molecules are shown by their SMILES.

Turning to `O=C(OCOc1ccc2c(c1)Oc1cc(OCOC(=O)c3cnco3)ccc1C21OC(=O)c2ccccc21)c1cnco1` [compound 7, substrate 7], the KM result is “Msmeg LipN has high enzymatic activity against the oxazole ester substrate”.
